From US20240174679A1, “HETEROAROYL AMIDES AS LRRK2 INHIBITORS, PHARMACEUTICAL COMPOSITIONS, AND USES THEREOF” (MERCK SHARP & DOHME LLC, priority 2021, published 2024)

These compounds were tested against GST tagged truncated human mutant G2019S LRRK2 (Homo sapiens (Human), UniProt Q5S007, G2019S) (assay: LRRK2 Km ATP LanthaScreen Assay). Details: 134 μM ATP (Km ATP), LRRKtide substrate, negative log of mean IC50 (molar).
Assay type: biochemical
Procedure: Unless otherwise noted, all reactions are magnetically stirred. Unless otherwise noted, when diethyl ether is used in the experiments described below, it is Fisher ACS certified material and is stabilized with BHT. Unless otherwise noted, “concentrated” and/or “solvent removed under reduced pressure” means evaporating the solvent from a solution or mixture using a rotary evaporator or vacuum pump. Unless otherwise noted, flash chromatography is carried out on a Teledyne Isco (Lincoln, NE), Analogix (Burlington, WI), or Biotage (Stockholm, SWE) automated chromatography system using a commercially available cartridge as the column. Columns may be purchased from Teledyne Isco, Analogix, Biotage, Varian (Palo Alto, CA), or Supelco (Bellefonte, PA) and are usually filled with silica gel as the stationary phase. Reversed phase preparative HPLC conditions, where used, can be found at the end of each experimental section. Aqueous solutions were concentrated on a Genevac (Ipswich, ENG) or by freeze-drying/lyophilization. Unless otherwise noted, all LRRK2 pIC50 data presented in tables refers to the LRRK2 G2019S Km ATP LanthaScreen™ assay (Life Technologies Corp., Carlsbad, CA) that is described in the Biological Assay section.
Biological Assay: LRRK2 Km ATP LanthaScreen™ Assay
Compound potency against LRRK2 kinase activity was determined using LanthaScreen™ technology from Life Technologies Corporation (Carlsbad, CA) using a GST20 tagged truncated human mutant G2019S LRRK2 in the presence of the fluorescein-labeled peptide substrate LRRKtide® (LRRK2 phosphorylated ezrin/radixin/moesin (ERM)), also from Life Technologies. The data presented for the Km ATP LanthaScreen™ Assay represents mean IC50 values based on several test results and may have reasonable deviations depending on the specific conditions and reagents used. Km is the Michaelis constant of an enzyme and is defined as the concentration of native substrate (ATP for a kinase) which permits the enzyme to achieve half Vmax (Vmax=rate of reaction when the enzyme is saturated with substrate). IC50 (half-maximal inhibitory concentration) represents the concentration of inhibitor required to inhibit LRRK2 kinase activity by 50%. Assays were performed in the presence of 134 μM ATP (Km ATP). Upon completion, the assay was stopped, and phosphorylated substrate detected with a terbium (Tb)-labeled anti-pERM antibody (cat. no. PV4898). The compound dose response was prepared by diluting a 10 mM stock of compound to a maximum concentration of 9.99 μM in 100% DMSO, followed by custom fold serial dilution in DMSO nine times. 20 nL of each dilution was spotted via a Labcyte Echo onto a 384-well black-sided plate (Corning 3575) followed by 15 μL of a 1.25 nM enzyme solution in 1× assay buffer (50 mM Tris pH 8.5, 10 mM MgCl2, 0.01% Brij-35, 1 mM EGTA, 2 mM dithiothreitol, 0.05 mM sodium orthovanadate). Following a 15-min incubation period at rt, the kinase reaction was started with the addition of 5 μL of 400 nM fluorescein-labeled LRRKtide® (LRRK2 phosphorylated ezrin/radixin/moesin (ERM)) peptide substrate and 134 μM ATP solution in 1× assay buffer. The reaction was allowed to progress at ambient temperature for 90 min. The reaction was then stopped by the addition of 20 μL of TR-FRET Dilution Buffer (Life Technologies, Carlsbad, CA) containing 2 nM Tb-labeled anti-phospho LRRKtide® (LRRK2 phosphorylated ezrin/radixin/moesin (ERM)) antibody and 10 mM EDTA (Life Technologies, Carlsbad, CA). After an incubation period of 1 h at rt, the plate was read on an EnVision® multimode plate reader (Perkin Elmer, Waltham, MA) with an excitation wavelength of 337 nm (Laser) and a reading emission at both 520 and 495 nm. Compound IC50 values were interpolated from nonlinear regression best-fits of the log of the final compound concentration, plotted as a function of the 520/495-nm emission ratio using activity base “Abase”). Abase uses a 4 parameter (4P) logistic fit based on the Levenberg-Marquardt algorithm. […]

Sequence of GST tagged truncated human mutant G2019S LRRK2 (Q5S007 970-2527 G2019S): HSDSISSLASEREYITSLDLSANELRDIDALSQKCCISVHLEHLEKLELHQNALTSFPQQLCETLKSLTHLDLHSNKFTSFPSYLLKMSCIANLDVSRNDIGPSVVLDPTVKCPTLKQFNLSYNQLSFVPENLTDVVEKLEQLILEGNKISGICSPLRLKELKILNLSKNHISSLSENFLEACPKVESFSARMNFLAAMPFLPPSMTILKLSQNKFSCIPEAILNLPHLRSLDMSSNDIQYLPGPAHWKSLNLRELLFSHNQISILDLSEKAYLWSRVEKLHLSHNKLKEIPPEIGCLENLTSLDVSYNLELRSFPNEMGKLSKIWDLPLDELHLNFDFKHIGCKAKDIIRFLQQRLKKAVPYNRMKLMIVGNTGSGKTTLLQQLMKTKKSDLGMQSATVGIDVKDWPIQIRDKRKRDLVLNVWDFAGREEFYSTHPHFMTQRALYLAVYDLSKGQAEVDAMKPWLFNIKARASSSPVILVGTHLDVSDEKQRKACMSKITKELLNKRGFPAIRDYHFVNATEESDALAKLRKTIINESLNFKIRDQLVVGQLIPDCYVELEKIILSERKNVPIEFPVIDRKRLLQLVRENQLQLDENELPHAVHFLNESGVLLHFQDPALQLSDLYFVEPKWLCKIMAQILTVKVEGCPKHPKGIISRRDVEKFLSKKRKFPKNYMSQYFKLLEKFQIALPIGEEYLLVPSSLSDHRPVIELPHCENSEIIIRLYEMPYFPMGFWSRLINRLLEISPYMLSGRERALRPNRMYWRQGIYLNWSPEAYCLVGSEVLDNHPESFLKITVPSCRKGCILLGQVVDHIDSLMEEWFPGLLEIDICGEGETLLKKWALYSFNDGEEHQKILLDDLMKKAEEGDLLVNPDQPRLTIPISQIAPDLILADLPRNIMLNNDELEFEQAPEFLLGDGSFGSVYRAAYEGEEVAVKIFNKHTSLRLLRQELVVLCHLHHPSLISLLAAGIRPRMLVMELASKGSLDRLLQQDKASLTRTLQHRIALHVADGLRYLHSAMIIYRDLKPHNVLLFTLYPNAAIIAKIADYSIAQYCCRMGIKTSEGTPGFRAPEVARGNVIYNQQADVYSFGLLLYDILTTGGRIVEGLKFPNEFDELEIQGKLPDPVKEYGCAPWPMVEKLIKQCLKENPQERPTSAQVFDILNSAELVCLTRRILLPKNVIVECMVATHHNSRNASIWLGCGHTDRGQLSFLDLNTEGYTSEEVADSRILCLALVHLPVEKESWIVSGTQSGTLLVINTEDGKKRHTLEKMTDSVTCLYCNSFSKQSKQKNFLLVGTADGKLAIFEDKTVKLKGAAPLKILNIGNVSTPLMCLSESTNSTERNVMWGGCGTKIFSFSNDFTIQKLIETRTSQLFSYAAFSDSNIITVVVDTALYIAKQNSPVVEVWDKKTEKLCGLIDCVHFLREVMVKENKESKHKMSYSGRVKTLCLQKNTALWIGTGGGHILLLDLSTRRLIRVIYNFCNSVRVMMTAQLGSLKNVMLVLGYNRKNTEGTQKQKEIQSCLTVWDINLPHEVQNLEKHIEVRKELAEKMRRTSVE

Row | Structure (SMILES) | LRRK2 pIC50
1 | O=C(Nc1cn(CC2CC2(F)F)nc1C(F)F)c1csc(-c2cn[nH]c2)n1 (stereo not shown) [Example 7-29, N-{1-[(2,2-difluorocyclopropyl)methyl]-3-(difluoromethyl)-1H-pyrazol-4-yl}-2-(1H-pyrazol-4-yl)-1,3-thiazole-4-carboxamide] | 7.78
2 | O=C(Nc1cnn(CC2CCC(F)(F)CC2)c1)c1csc(-c2cn[nH]c2)n1 [Example 7-8, N-{1-[(4,4-difluorocyclohexyl)methyl]-1H-pyrazol-4-yl}-2-(1H-pyrazol-4-yl)-1,3-thiazole-4-carboxamide] | 7.35
3 | O=C(Nc1cn(C2CCC2)nc1C1CC1)c1csc(-c2cn[nH]c2)n1 [Example 3-2, N-(1-cyclobutyl-3-cyclopropyl-1H-pyrazol-4-yl)-2-(1H-pyrazol-4-yl)-1,3-thiazole-4-carboxamide] | 8.35
4 | N[C@H]1CC[C@](F)(Cn2cc(NC(=O)c3csc(-c4cn[nH]c4)n3)cn2)CC1 [Example 7-35, N-{1-[(cis-4-amino-1-fluorocyclohexyl)methyl]-1H-pyrazol-4-yl}-2-(1H-pyrazol-4-yl)-1,3-thiazole-4-carboxamide] | 6.24
5 | COCCn1cc(-c2cccc(C(=O)Nc3cnn(CC4CCC4)c3)n2)cn1 [Example 9-12, N-[1-(cyclobutylmethyl)-1H-pyrazol-4-yl]-6-[1-(2-methoxyethyl)-1H-pyrazol-4-yl]pyridine-2-carboxamide] | 6.95
6 | NCC1CCC(F)(Cn2cc(NC(=O)c3csc(-c4cn[nH]c4)n3)cn2)CC1 (stereo not shown) [Example 7-36, N-(1-{[4-(aminomethyl)-1-fluorocyclohexyl]methyl}-1H-pyrazol-4-yl)-2-(1H-pyrazol-4-yl)-1,3-thiazole-4-carboxamide] | 7.65
7 | CC(=O)Nc1nc(C(=O)Nc2cnn(C3CCC3)c2)cs1 [Example 4-12, 2-(acetylamino)-N-(1-cyclobutyl-1H-pyrazol-4-yl)-1,3-thiazole-4-carboxamide] | 6.18
8 | O=C(Nc1cnn(C2CC2)c1)c1csc(-c2ccn[nH]2)n1 [Example 9-40, N-(1-cyclopropyl-1H-pyrazol-4-yl)-2-(1H-pyrazol-5-yl)thiazole-4-carboxamide] | 7.06
9 | O=C(Nc1cnn(CC2CCC2)c1)c1cccc(-c2cnsc2)n1 [Example 9-15, N-[1-(cyclobutylmethyl)-1H-pyrazol-4-yl]-6-isothiazol-4-ylpyridine-2-carboxamide] | 6.66
10 | CC(C)Cn1cc(NC(=O)c2csc(-c3cn[nH]c3)n2)cn1 [Example 7-41, N-[1-(2-methylpropyl)-1H-pyrazol-4-yl]-2-(1H-pyrazol-4-yl)-1,3-thiazole-4-carboxamide] | 7.46
11 | CCn1cc(-c2nc(C(=O)Nc3cnn(C4CCC4)c3)cs2)cn1 [Example 9-4, N-(1-cyclobutyl-1H-pyrazol-4-yl)-2-(1-ethyl-1H-pyrazol-4-yl)-1,3-thiazole-4-carboxamide] | 7.41
12 | O=C(Nc1cnn(C2CCC2)c1)c1csc(-n2ccnc2)n1 [Example 11-2, N-(1-cyclobutyl-1H-pyrazol-4-yl)-2-(1H-imidazol-1-yl)thiazole-4-carboxamide] | 6.61
13 | CNC(=O)c1nn(C)cc1NC(=O)c1csc(-c2cn[nH]c2)n1 [Example 1-4, N-[1-methyl-3-(methylcarba-moyl)-1H-pyrazol-4-yl]-2-(1H-pyrazol-4-yl)-1,3-thiazole-4-carboxamide] | 8.15
14 | O=C(Nc1cnn(C[C@@H]2CCNC2)c1)c1csc(-c2cn[nH]c2)n1 [Example 7-30, 2-(1H-pyrazol-4-yl)-N-(1-{[(3R)-pyrrolidin-3-yl]methyl}-1H-pyrazol-4-yl)-1,3-thiazole-4-carboxamide] | 6.25
15 | O=C(Nc1cnn(C2CCC2)c1)c1csc(-c2cccnc2)n1 [Example 9-39, N-(1-cyclobutyl-1H-pyrazol-4-yl)-2-(pyridin-3-yl)thiazole-4-carboxamide] | 7.06
16 | COc1cccc(C(=O)Nc2cnn(C3CCC3)c2)n1 [Example 4-10, N-(1-cyclobutyl-1H-pyrazol-4-yl)-6-methoxypyridine-2-carboxamide] | 5.35
